Among the test systems are XF498; HOP-18; RXF 631; DMS-114; DMS-273; M19-MEL; LXFL 529; SNB-78; DLD-1.
Common to all, as to assay: DTP human tumour cell line panel, 48 h

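Where inhibition never reached the appropriate level, the endpoint shown equals the highest concentration tested. Otherwise, values were interpolated linearly from a five-concentration, 48-hour dose response in 96-well plates. GI50: concentration for 50% inhibition of growth.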 The source made the active and inactive calls. No stated cut-off is given here; in the data, active = GI50 up to about 1.1 µM and inactive = higher.

In the case of `C=C1COC(O)(C2OCOC(C3CC(=O)NC(=O)C3)C2O)C1C` (centres undefined), the 50% growth inhibitory concentration (GI50) (commonly the concentration giving 50% growth inhibition) was < 0.01 µM (active) in the test on XF498; 0.00357 µM (active) in the test with HOP-18; 0.0037 µM (active) in the test with RXF 631; 0.00319 µM (active) in the test with DMS-114; 0.00417 µM (active) in the test on DMS-273; 0.00156 µM (active) with M19-MEL. Besides, the 50% growth inhibitory concentration (GI50) in the test with LXFL 529 was 0.00222 µM (active); with SNB-78, 0.00718 µM (active); with DLD-1, 0.00416 µM (active).

As to `O=C(CCc1nnc(S)[nH]1)NC12CC3CC(CC(C3)C1)C2`, the GI50 with XF498, in the test with HOP-18, in the test with RXF 631, in the test with DMS-114, in the test on DMS-273 and in the test on M19-MEL was > 100 µM (inactive) throughout. The GI50 with LXFL 529, with SNB-78 and in the test on DLD-1 was > 100 µM (inactive) each time.

On to `N#CCCN(CCC#N)c1ccc(/C=N\c2ccc(F)cc2)cc1`, for which the GI50 with XF498 is > 100 µM (inactive); with HOP-18, > 100 µM (inactive); with RXF 631 it was > 45.8 µM (inactive); in the test with DMS-114 it was 13.8 µM (inactive); in the test on DMS-273, 4.61 µM (inactive); with M19-MEL it was 1.63 µM (inactive). The GI50 with LXFL 529 was 0.121 µM (active); with SNB-78, > 100 µM (inactive); in the test on DLD-1, 0.347 µM (active).

Regarding `O=C1/C(=C/c2ccccc2Cl)COc2ccccc21`, the GI50 was 15.6 µM (inactive) with XF498; 11.8 µM (inactive) in the test on HOP-18; 19.2 µM (inactive) in the test on RXF 631; 18 µM (inactive) with DMS-114; 15 µM (inactive) in the test on DMS-273; 18.6 µM (inactive) in the test on M19-MEL. Moreover, the GI50 with LXFL 529 was 17.5 µM (inactive); in the test on SNB-78, 19.3 µM (inactive); in the test on DLD-1 it was 15.3 µM (inactive).

Take `COc1ccc(CC(C)N)cc1` (centres undefined) [PARA-METHOXYAMPHETAMINE]: the GI50 in the test on XF498, with HOP-18, with RXF 631, in the test with DMS-114, in the test on DMS-273 and with LXFL 529 was > 100 µM (inactive) in each case. Besides, the GI50 in the test on SNB-78 and in the test on DLD-1 was > 100 µM (inactive) throughout.

The values are drawn from ChEMBL document CHEMBL1201862, “PubChem BioAssay data set” (2004).
